Values of other authors as cited in patent US20260242330A1, “USE OF AN AMANTADINE MONONITRATE COMPOUND IN MANUFACTURE OF A MEDICAMENT FOR THE PREVENTION AND TREATMENT OF HYPERTENSION” (GUANGZHOU MAGPIE PHARMACEUTICALS CO., LTD., priority 2022, published 2026).

Tested on: 24-hour blood pressure in primary hypertension
Conditions: cited from earlier work

SMILES | average 24-hour dynamic diastolic pressure decrease [mmHg] | average 24-hour dynamic systolic pressure decrease [mmHg]
CCOC(=O)[C@H](CCc1ccccc1)N[C@H]1CCc2ccccc2N(CC(=O)O)C1=O [benazepril] | 3.33 | 6.74
COCCc1ccc(OCC(O)CNC(C)C)cc1 (centres unmarked) [metoprolol] | 4.6 | 6.66
Cc1cccc(Nc2ccncc2S(=O)(=O)NC(=O)NC(C)C)c1 [tolasemide] | 2.42 | 5.92
CCCCC(=O)N(Cc1ccc(-c2ccccc2-c2nnn[nH]2)cc1)[C@H](C(=O)O)C(C)C [valsartan] | 6.04 | 8.08
